Test results as given in patent US20090197957A1, “Methods and compositions for the treatment of pain” (Nuon Therapeutics, Inc., priority 2005, published 2009).
pIC50: −log10 of the molar value.

Key:
[1] = system: mechanical and thermal allodynia in CIA; assay: Allodynia assessment in arthritic mice (Plantar Von-Frey, Hargreaves test); assay type: in vivo
Protocol: FIG. 6 is an image depicting that 3,4-DAA inhibits mechanical and thermal allodynia, and inhibits astrocytic activation in arthritic mice. Mechanical (a) and thermal (b) allodynia, and paw swelling (c) and clinical score (d) were assessed in naïve mice on the day of arthritis onset, and up to 10 days following therapy with 200 mg/kg 3,4-DAA, […] dexamethasone, or vehicle. […] Whilst 3,4-DAA therapy reduced astrocytic activation (bottom right panel) dexamethasone had no action on GFAP levels (bottom left panel). Quantification of the number of hyper-plastic astrocytes in the spinal cord 10 days following onset of arthritis was performed (f).
The pain thresholds of the mice were assessed prior to immunization (naïve) on day of onset (day 0) and up to 10 days following therapy with 3,4-DAA (200 mg/kg/day), dexamethasone (0.5 mg/kg/2 days) or vehicle alone (n=9 per group). The Ugo Basile 37400 Plantar Von-Frey microprocessor controlled unit was used to assess mechanical hyperalgesia and Ugo Basile 7370-6 Plantar Test (Hargreaves test) was used to assess thermal hyperalgesia. Mechanical hyperalgesia was assessed by applying an increasing force to the hind paw at the rate of 3 g/second, and measuring the force required to elicit lifting of the paw. Thermal hyperalgesia was assessed by applying an increasing infrared source (intensity 50), and measuring the time required for lifting of the paw.

purified T cells = assay: T cell proliferation in vitro (anti-CD3/anti-CD28, 3H-thymidine incorporation); assay type: cell-based; conditions: anti-CD3/anti-CD28 stimulation, 72 h; for pIC50: T-cell, read-out: IC50 for inhibition of T cell proliferation; for T cell proliferation: varying doses
Protocol: FIG. 7 is a graphical representation depicting that 3,4-DAA and 3-HAA inhibit B and T cell proliferation in vitro. Purified B and T cells were stimulated for 72 h with anti-CD40 (a), or anti-CD3/anti-CD28 (b) respectively, in the presence of varying doses of 3,4-DAA, or 3-HAA.
A single cell suspension was prepared by pushing splenic tissue through a cell strainer, and erythrocytes were lysed using an ammonium chloride solution (Sigma, St Louis, Mo.). B cells were positively enriched by using anti-IgM microbeads (BD Pharmingen), and T cells were positively enriched using anti-CD4 MACS microbeads, according to the manufacturer's guidelines (Miltenyi Biotec, Bergisch Gladbach, Germany). Purity was assessed by flow cytometric analysis (B cell>90% CD19+, T cell>90% CD4+). Cells were cultured at 5×10^5 cells/ml in 200 μl complete RPMI, as above, in a flat bottom 96-well plate and cultured for 72 h. B cells were stimulated with anti-CD40 monoclonal antibody (10 μg/ml; BD), and T cells were stimulated with 5 μg/ml plate-bound anti-CD3 (ebiosciences) plus 5 μg/ml soluble anti-CD28 (ebiosciences). 3,4-DAA, 3-HAA, or vehicle (DMSO) was added at graded concentrations immediately prior to stimulation. 48 hours after stimulation, 100 μl culture medium was collected, and cells were pulsed with 1 μCi ^3H thymidine per well for 18 h. Cells were then harvested and plates assessed for thymidine incorporation. Each assay was performed on a minimum of 3 occasions. IFN-γ, IL-10 and IL-5 levels were assessed in the culture medium by ELISA, as above.
Activation of purified B (FIG. 7a) and T cells (FIG. 7b) was induced by anti-CD40, and anti-CD3/CD28 respectively, and proliferation was assessed by ^3H-thymidine incorporation. […] Inhibition of proliferation was also observed when B cells were stimulated with LPS or anti-IgM. […] It was concluded that the effects of 3,4-DAA and 3-HAA on T and B cells in vitro were remarkably similar, though not identical. It is of also note that 3-HAA had no action on inflammation or allodynia, when administered therapeutically in CIA at doses of up to 400 mg/kg/day.

[2] = established arthritis, up to 10 days therapy, 3,4-DAA 200 mg/kg/day, dexamethasone 0.5 mg/kg/2 days

Compound | action on allodynia in CIA ([1]; administered therapeutically at doses of up to 400 mg/kg/day) | pIC50 (purified T cells) | T cell proliferation (purified T cells) | mechanical allodynia [1, 2] | thermal allodynia [1, 2]
Nc1c(O)cccc1C(=O)O [3-Hydroxyanthranilic acid] | no action | 4.00 | dose-dependently inhibited |  | 
COc1ccc(/C=C/C(=O)Nc2ccccc2C(=O)O)cc1OC [Tranilast, 2-[[3-(3,4-dimethoxyphenyl)-1-oxo-2-propenyl]amino]benzoic acid] |  | 4.55 | dose-dependently inhibited | abolished | abolished
